From US5521196A, “5-HT1F agonists for the treatment of migraine” (Eli Lilly and Company, priority 1994, dated 1996)
Structures can show the parent of a compound that is named as a salt.

These compounds were tested against T1, 5-HT1F receptor (Homo sapiens, UniProt P30939) (assay: biochemical). Conditions: Table I; displacement of 4.5-5.5 nM [3H]5-HT, 37° C., 30 minutes; read-out: 5-HT1F BINDING Ki.
T1 sequence (P30939 1-366): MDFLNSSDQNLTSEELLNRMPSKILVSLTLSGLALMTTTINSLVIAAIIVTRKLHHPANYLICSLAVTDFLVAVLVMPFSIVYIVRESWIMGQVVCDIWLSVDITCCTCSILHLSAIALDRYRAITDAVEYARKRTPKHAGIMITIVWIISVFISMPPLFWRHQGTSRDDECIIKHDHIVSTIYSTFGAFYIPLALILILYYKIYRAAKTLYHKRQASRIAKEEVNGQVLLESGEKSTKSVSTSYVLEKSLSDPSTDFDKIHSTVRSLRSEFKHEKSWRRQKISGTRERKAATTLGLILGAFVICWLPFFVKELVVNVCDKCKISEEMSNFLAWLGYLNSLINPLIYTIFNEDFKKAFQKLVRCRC

Ki | Structure (SMILES)
5.7 nM | Cn1cc(CCN2CCC(c3c[nH]c4ccccc34)CC2)cn1 [Example 1, 3-<1-<2-<1-methyl-1H-pyrazol-4-yl>ethyl>-4-piperidinyl>-1H-indolehydrochloride]
1.7 nM | Cn1cc(CCN2CCC(c3c[nH]c4ccc(Cl)cc34)CC2)cn1 [Example 3, 5-chloro-3-<1-<2-<1-methyl-1H-pyrazol-4-yl>ethyl>-4-piperidinyl>-1H-indolehydrochloride]
3 nM | Cn1cc(CCN2CCC(c3c[nH]c4ccc(Br)cc34)CC2)cn1 [Example 4, 5-bromo-3-<1-<2-<1-methyl-1H-pyrazol-4-yl>ethyl>-4-piperidinyl>-1H-indoleoxalate]
9.9 nM | COc1ccc2[nH]cc(C3CCN(CCc4cnn(C)c4)CC3)c2c1 [Example 5, 5-methoxy-3-<1-<2-<1-methyl-1H-pyrazol-4-yl>ethyl>-4-piperidinyl>-1H-indoleoxalate]
4.5 nM | CC(C)n1cc(CCN2CCC(c3c[nH]c4ccccc34)CC2)cn1 [Example 6, 3-<1-<2-<1-(1-methylethyl)-1H-pyrazol-4-yl>ethyl>-4-piperidinyl>-1H-indolehydrochloride]
4.9 nM | CC(C)n1cc(CCN2CCC(c3c[nH]c4ccc(F)cc34)CC2)cn1 [Example 7, 5-fluoro-3-<1-<2-<1-(1-methylethyl)-1H-pyrazol-4-yl>ethyl>-4-piperidinyl>-1H-indole oxalate]
4.1 nM | CC(C)n1cc(CCN2CCC(c3c[nH]c4ccc(Cl)cc34)CC2)cn1 [Example 8, 5-chloro-3-<1-<2-<1-(1-methylethyl)-1H-pyrazol-4-yl>ethyl>-4-piperidinyl>-1H-indole]
5 nM | CC(C)n1cc(CCN2CCC(c3c[nH]c4ccc(Br)cc34)CC2)cn1 [Example 9, 5-bromo-3-<1-<2-<1-(1-methylethyl)-1H-pyrazol-4-yl>ethyl>-4-piperidinyl>-1H-indole oxalate]
6.2 nM | COc1ccc2[nH]cc(C3CCN(CCc4cnn(C(C)C)c4)CC3)c2c1 [Example 10, 5-methoxy-3-<1-<2-<1-(1-methylethyl)-1H-pyrazol-4-yl>ethyl>-4-piperidinyl>- 1H-indole oxalate]
3.3 nM | CCCn1cc(CCN2CCC(c3c[nH]c4ccccc34)CC2)cn1 [Example 12, 3-<1-<2-<1-propyl-1H-pyrazol-4-yl>ethyl>-4-piperidinyl>-1-H-indole oxalate]
6 nM | CCCn1cc(CCN2CCC(c3c[nH]c4ccc(F)cc34)CC2)cn1 [Example 13, 5-fluoro-3-<1-<2-<1-propyl-1H-pyrazol-4-yl>ethyl>-4-piperidinyl>-1H-indoleoxalate]
5.7 nM | CCCn1cc(CCN2CCC(c3c[nH]c4ccc(Cl)cc34)CC2)cn1 [Example 14, 5-chloro-3-<1-<2-<1-propyl-1H-pyrazol-4-yl>ethyl>-4-piperidinyl>-1H-indoleoxalate]
6.6 nM | CCCn1cc(CCN2CCC(c3c[nH]c4ccc(Br)cc34)CC2)cn1 [Example 15, 5-bromo-3-<1-<2-<1-propyl-1H-pyrazol-4-yl>ethyl>-4-piperidinyl>-1H-indoleoxalate]
43.8 nM | c1ccc2c(C3CCN(CCc4cnn(C5CCCCC5)c4)CC3)c[nH]c2c1 [Example 16, 3-<1-<2-<1-cyclohexyl-1H-pyrazol-4-yl>ethyl>-4-piperidinyl>-1H-indoleoxalate]
33.2 nM | Fc1ccc2[nH]cc(C3CCN(CCc4cnn(C5CCCCC5)c4)CC3)c2c1 [Example 17, 5-fluoro-3-<1-<2-<1-cyclohexyl-1H-pyrazol-4-yl>ethyl>-4-piperidinyl>-1H-indole oxalate]
34 nM | Clc1ccc2[nH]cc(C3CCN(CCc4cnn(C5CCCCC5)c4)CC3)c2c1 [Example 18]
49.4 nM | Brc1ccc2[nH]cc(C3CCN(CCc4cnn(C5CCCCC5)c4)CC3)c2c1 [Example 19]

Same assay, conditions: read-out: 5-HT1F BINDING Ki

Ki | Structure (SMILES)
10.3 nM | CC(C)n1cc(CCN2CCC(c3c[nH]c4ccc(C(N)=O)cc34)CC2)cn1 [Example 11, 5-carboxamido-3-<1-<2-<1-(1-methylethyl)-1H-pyrazol-4-yl>ethyl>-4-piperidinyl>-1H-indole]
